The test system of data set [1] is calvaria. In words: Activity of inhibiting bone absorption (PTH-intensified calcium release from cultured calvaria). The data set is classed as cell-based, dd mouse. As to conditions: Mus musculus, human PTH 1-34 1×10^-8 M, 96 hours, read-out: Inhibition Rate. On the procedure:
A calvaria of a 5 to 6 day-old dd mouse was aseptically cut off, washed with Dulbecco's modified phosphate buffered saline not containing calcium and magnesium (manufactured by Gibco Oriental Co.) and separated along the sutura of its center. One half of the calvaria so separated was cultured in 1.5 ml of Dulbecco's modified Eagle medium (manufactured by Gibco Oriental Co.) containing 15% of thermally inactivated (at 56° C. for 20 minutes) horse serum and 2.5% of fetal calf serum. The test compound was dissolved in dimethyl sulfoxide, and 10 μl (final concentration: 1×10^-4 M or 1×10-^5 M) of the solution so prepared was added to the culture. Parathyroid hormone (human PTH 1-34, manufactured by Sigma Co.) was dissolved in 0.15 M sodium chloride solution (pH 3), and 3 μl (final concentration: 1×10^-8 M) of the solution so prepared was added to the culture. The cultivation was carried out for 96 hours at 37° C. in an atmosphere consisting of 95% of air and 5% of carbon dioxide. The culture medium was once replaced with a fresh one after 48 hours from the beginning of the cultivation. The concentration of dissolved calcium (i.e., absorption of bone) from the PTH-intensified bone was determined by measuring the quantity of calcium accumulated in the culture collected in 96 hours of cultivation, whereby the concentration of total calcium contained in the culture was measured with Calcium C-Test Wako (manufactured by Wako Pure Chemicals Co., Ltd.), and the inhibition rate was calculated therefrom in accordance with the equation set forth below. [formula] Cd : Total calcium concentration in the culture treated with both test compound and PTH
Cp : Total calcium concentration in the culture treated with PTH alone
Co Total calcium concentration in the culture treated with neither test compound nor PTH

Data set [2] deals with cells obtained from the spleen of Balb/c mice sensitized with sheep red blood cells. In words: Plaque Forming Cell Assay (inhibition of antibody production). The data set is classed as cell-based, Balb/c strain male mice. The note with it: for inhibition at 100 µM / inhibition at 10 µM: Mus musculus, Erythrocyte, inhibition of antibody production, read-out: Inhibition Rate. On the procedure: The method developed by Jerne [Science, 140, 405 (1963)] and Yamamoto, et al [Drugs. Exptl. Clin. res., 8, 5 (1982)] were modified for plaque forming cell assay.
That is, Balb/c strain male mice (age of 7 weeks, Charles River Japan Inc.) were sensitized with 1×10^8 sheep red blood cells (Bio Test Research Institute) and the spleen was extirpated on the sixth or seventh day. The cells obtained from the spleen were treated with ACT solution (Tris-ammonium chloride isotonic buffer) to remove red blood cells. The cells were washed three times with RPMI-1640 medium (Nissui Pharmaceutical Co. . The cells (1×10^7) were incubated in RPMI-1640 medium containing 10% calf fetal serum (Gibco Co.), 50 μg/ml streptomycin, 50 IU/ml of penicillin, 2-mercaptoethanol (5×10^-5 M), sheep red blood cells (5×10^6 cells) and a test compound dissolved in dimethyl sulfoxide supplied on a microculture plate (NUNC Co., 24 wells) in a carbon dioxide gas incubator (TABAI ESPEC CORP) at 37° C. for 5 days.
After completion of the incubation, the cells were transferred to a plastic test tube and centrifuged at 2000 rpm. After the supernatant was removed, the cells were resuspended in 1 ml of RPMI-1640 medium. The cell suspension was sealed in a Cunnigham chamber (Takahashi Giken Co.) together with sheep red blood cells and guinea pig complement (Cedarlane Research Institute) according to the method of Cunnigham [Immunology, 14, 599 (1968)] and incubated at 37° C. for 1 to 2 hours. Direct plaque forming cell (PFC) count was counted.
A rate of inhibiting antibody production by the test compound was determined by the following equation. [formula] A : PFC count in the absence of test compound (dimethylsulfoxide alone) B : PFC count in the presence of test compound

The subject of data set [3] is dd-strain male mice. In words: Acute toxicity test. The data set is classed as in vivo. The note with it: orally administered, mortality for 7 days. How it is done: A test compound was orally administered to three dd-strain male mice weighting 20±1 g. The minimum lethal dose (MLD) was determined by observing the mortality for 7 days after the administration.

These results are taken from patent US5219864A, “Thienopyridine derivatives” (Kyowa Hakko Kogyo Co., Ltd., priority 1991, dated 1993).

Molecules are shown by their SMILES.

Regarding `O=C(Nc1cccnc1)c1c(O)c2sccc2[nH]c1=O` [Compound 1, 4,5-Dihydro-7-hydroxy-5-oxo-N-(3-pyridyl)thieno[3,2-b]-pyridine-6-carboxamide], the inhibition at 100 µM in data set [1] is -1%.
On the same count and under the same terms, in the case of `O=C(Nc1ccncc1)c1c(O)c2sccc2[nH]c1=O` [Compound 2, 4,5-Dihydro-7-hydroxy-5-oxo-N-(4-pyridyl)thieno[3,2-b]-pyridine-6-carboxamide] it was 51%.
`CCCCn1c(=O)c(C(=O)Nc2ccncc2)c(O)c2sccc21` [Compound 3, 4-(n-Butyl)-4,5-dihydro-7-hydroxy-5-oxo-N-(4-pyridyl)thieno-[3,2-b]pyridine-6-carboxamide]: the inhibition at 10 µM in data set [1] amounted to 141%; in data set [2] (10^-5 M) it was 98.8%. Moreover, the “Direct PFC Count (mean ± S.E.M.)” value is recorded as 101 ± 76 in data set [2] (10^-4 M) and 59 ± 38 in data set [2] (10^-5 M). Moreover, in data set [2] (10^-4 M), the inhibition at 100 µM came to 98%.
Regarding `CCCCn1c(=O)c(C(=O)Nc2cccnc2)c(O)c2sccc21` [Compound 4, 4-(n-Butyl)-4,5-dihydro-7-hydroxy-5-oxo-N-(3-pyridyl)thieno-[3,2-b]pyridine-6-carboxamide], in data set [1], the inhibition at 10 µM amounted to 58%. In addition, the “minimum lethal dose (MLD)” value in data set [3] is on record as > 300 mg/kg. For the same molecule, in data set [2] (10^-4 M), the “Direct PFC Count (mean ± S.E.M.)” value is 336 ± 124 and the inhibition at 100 µM was 93.3%. For the same molecule, in data set [2] (10^-5 M), the “Direct PFC Count (mean ± S.E.M.)” value is 395 ± 52 and the inhibition at 10 µM was 92.1%.
`CCCCn1c(=O)c(C(=O)Nc2ccncc2)c(O)c2ccsc21` [Compound 5, 7-(n-Butyl)-6,7-dihydro-4-hydroxy-6-oxo-N-(4-pyridyl)thieno-[2,3-b]pyridine-5-carboxamide]: the inhibition at 10 µM came out at 53% in data set [1] and 95.5% in data set [2] (10^-5 M). For the same molecule, the “Direct PFC Count (mean ± S.E.M.)” value in data set [2] (10^-4 M) is on record as 109 ± 77; in data set [2] (10^-5 M), 227 ± 131. For the same molecule, the inhibition at 100 µM in data set [2] (10^-4 M) was determined as 97.8%.
The corresponding values for `CCCCn1c(=O)c(C(=O)Nc2cccnc2)c(O)c2ccsc21` [Compound 6, 7-(n-Butyl)-6,7-dihydro-4-hydroxy-6-oxo-N-(3-pyridyl)thieno-[2,3-b]pyridine-5-carboxamide] are 38%, 98.8%, 42 ± 29, 59 ± 29 and 99.2%.
Consider `O=C(Nc1ccncc1)c1c(O)c2ccsc2[nH]c1=O` [Compound 7, 6,7-Dihydro-4-hydroxy-6-oxo-N-(4-pyridyl)thieno[2,3-b]-pyridine-5-carboxamide], for which the inhibition at 10 µM in data set [1] was 32%. In data set [3], the “minimum lethal dose (MLD)” value is given as > 300 mg/kg.
Take `O=C(Nc1cccnc1)c1c(O)c2ccsc2[nH]c1=O` [Compound 8, 6,7-Dihydro-4-hydroxy-6-oxo-N-(3-pyridyl)thieno[2,3-b]-pyridine-5-carboxamide]: the inhibition at 10 µM in data set [1] amounted to 18%.

Usually inhibition stands for the relative decrease from the control value, in per cent.
